Measurements reported in US20050228041A1, “Protective and therapeutic uses for tocotrienols” (priority 2003, published 2005).
“Also recorded” adds a separate entry of the source.

Experiments:
[1] = tested on: rat primary cortical neurons; test: Imaging of glutamate-induced degeneration of rat primary cortical neurons (immunofluorescence, live cell imaging); format: cell-based; settings: glutamate 10 mM; α-tocotrienol 250 nM or BL15 2.5 μM 5 min before
Description: Phase contrast images were collected once every 15 mins for 18 h from 8 h after glutamate treatment.
For immunofluorescence microscopy, primary cultures of rat cortical neurons were plated on 35 mm plates pre-coated with poly-L-lysine. After 24 h, cell were treated with α-tocotrienol or BL15 for 5 minutes and then challenged with glutamate or exposed to glutamate. After 24 h of glutamate exposure, cells were washed thrice in PBS, fixed for 10 minutes at room temperature in 4% paraformaldehyde, and permeabilized with PBS-T (PBS containing 0.2% Triton X-100) for 20 minutes at room temperature. Samples were then rinsed 3× with PBS-T and blocking (2% BSA in PBS-T) was done for 1 h at room temperature. After blocking, samples were incubated overnight at 4° C. with the primary antibody (anti-neurofilament 200 (1:100, Sigma St. Louis, Mo.) or neuronal class III α-tubulin (1:500, Covance Berkeley, Calif.)}. After washing with PBS (3×, 5 min each), the samples were incubated with Alexa Fluor 488 conjugated goat anti-mouse or anti-rabbit (Molecular Probes Eugene, Oreg.) secondary antibody for 45 minutes at room temperature. This was followed by three PBS washes, and mounting in aqueous medium. Fluorescent images were collected using a Zeiss Axiovert 200M microscope. Images were acquired using Axiovision 3.1.
For live cell imaging, primary cultures of rat cortical neurons were plated on 35 mm plates pre-coated with poly-L-lysine. […] Images were collected once every 15 minutes using a specialized phase contrast Zeiss optics suited for imaging cells growing in routine culture plates.

[2] = tested on: HT4 neurons; test: Glutamate-induced death of HT4 neurons (propidium iodide exclusion flow cytometry, cell counts); format: cell-based, mouse
Description: (§1) Referring to FIG. 1, primary rat immature cortical neurons (A-C) or HT4 (D) were either treated or not with α-tocotrienol (as indicated) for 5 min and challenged with either glutamate (10 mM; A); L-homocysteic acid (1 mM; B); or buthionine sulfoximine (0.15 mM; BSO) for 24 h. […] Cells were counted at 12, 24 and 36 h after glutamate challenge.
(§2) First, we tested for the involvement of 12-LOX in the execution of glutamate-induced death in our model. We started by using the 12-LOX specific inhibitor baicalein or BL15. Referring to FIG. 3, HT4 neurons (A) were either treated or not with a-tocotrienol (250 nM) or […] (2.5 μM, 12-lipoxygenase inhibitor) for 5 min and then challenged with glutamate (10 mM). Cell viability was determined using propidium iodide (PI) exclusion flow cytometry assay. PI−=live; PI+=dead. Rat primary immature cortical neurons (B-D) were either treated or not with α-tocotrienol (100 nM) or BL15 (2.5 μM) for 5 min and challenged either with glutamate (10 mM; B); L-homocysteic acid (1 mM; C) or buthionine sulfoximine (0.15 mM; BSO; D) for 24 h. Arachidonic acid, 50 μM for 24h. BL15, Baicalein 5,6,7-trihydroxy-flavone.
(§3) Cell culture. Mouse hippocampal HT4 cells, were grown in Dulbecco's Modified Eagle Medium supplemented with 10% fetal calf serum, penicillin (100 U/ml) and streptomycin (100 μg/ml) at 37° C. in a humidified atmosphere containing 95% air and 5% CO2. HT4 cells were provided by Dr. D. E. Koshland Jr. (University of California at Berkeley) (Sen et al., 2000). Primary cortical neurons. Cells were isolated from the cerebral cortex of rat feti (Sprague Dawley; day 17 of gestation) or mouse feti (C57BL/6 mice, day 14 of gestation) as described (Murphy et al., 1990). For 12-LOX knockout studies, neurons were isolated from the feti of B6.129S2-Alox15^tm1Fun (Jackson Laboratory, […].). After isolation from the brain, cells were counted and seeded in culture plates at a density of 2-3×10^6 cells per 35 mm plate (Murphy et al., 1990). Cells were grown in Minimal Essential Medium (MEM) supplemented with 10% heat-inactivated fetal bovine serum, 40 μM cystine and antibiotics (100 μg/ml streptomycin, 100 units/ml penicillin, 0.25 μg/ml amphotericin). Cultures were maintained at 37° C. in 5% CO2 and 95% air in a humidified incubator. All experiments were carried out 24 h after plating.
(§4) Treatment with neurotoxic agents. Immediately before experiments, culture media was replaced with fresh medium supplemented with serum and antibiotics. Glutamate (10 mM) was added to the media as aqueous solution (Han et al., 1997a; Sen et al., 2000; Tirosh et al., 2000). […] Other agents used to induce death in neuronal cells have been described in the pertinent figure legends.
(§5) Vitamin E treatment. Stock solutions (10^3X of working concentration) of α-tocotrienol was prepared in ethanol. […]
(§6) Determination of cell viability. Viability of HT4 cells was determined using propidium iodide exclusion assay using the flow cytometer as described by us previously (Sen et al., 2000; Tirosh et al., 2000). Because primary neuronal cultures tend to aggregate during flow cytometry, the viability of these cells was assessed by measuring lactate dehydrogenase (LDH) leakage (Han et al., 1997a) from cells to media 24 h following glutamate treatment using in vitro toxicology assay kit from Sigma Chemical Co. (St. Louis, Mo., USA). […]

[3] = tested on: primary rat immature cortical neurons; test: Neurotoxin-induced loss of viability of primary immature cortical neurons (LDH leakage); format: cell-based; settings: 24 h
Description: as §1, §2, §3, §4, §5, §6

[4] = tested on: primary neurons; test: Cellular glutathione (GSH) in glutamate-treated primary neurons (HPLC-coulometric); format: cell-based, rat; settings: glutamate 10 mM; α-tocotrienol 100 nM or BL15 2.5 μM
Description: as §2, with “5,6,7-trihydroxy-flavone. […] B-E: †, lower compared to the corresponding control non-treated group; *, higher compared to the corresponding toxin-treated group. P<0.05.” for “5,6,7-trihydroxy-flavone.”
Glutathione assay. Glutathione (GSH) was detected using a HPLC-coulometric electrode array detector (Coularray Detector—model 5600 with 12 channels; ESA Inc., Chelmsford, Mass.). […] Glutathione was detected at channels set at following potentials: I) 600 mV, II) 700 mV; and II) 800 mV. Signals from channel set at 800 mV were used for quantification (Sen et al., 2002).

[5] = target: T1, alphaTTP (Rattus norvegicus, UniProt P41034); settings: competition with alpha-[3H]tocopherol; FEBS Lett 1997; cited from earlier work
T1 sequence (P41034 1-278): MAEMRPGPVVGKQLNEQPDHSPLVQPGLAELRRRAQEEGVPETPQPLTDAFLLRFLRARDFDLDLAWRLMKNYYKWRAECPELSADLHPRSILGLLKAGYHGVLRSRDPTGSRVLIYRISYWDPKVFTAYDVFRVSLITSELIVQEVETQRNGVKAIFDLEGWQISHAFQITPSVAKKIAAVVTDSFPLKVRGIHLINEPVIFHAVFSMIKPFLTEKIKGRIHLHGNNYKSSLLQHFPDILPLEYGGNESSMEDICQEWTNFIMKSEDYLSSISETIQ

[6] = tested on: primary cardiac fibroblatsts (CF) isolated from adult mouse ventricle; test: Cardiac fibroblast death induced by arachidonic acid + buthionine sulfoximine (phase contrast imaging); format: cell-based; settings: arachidonic acid 50 microM + BSO, 250 nM tocotrienol, 24 h, 5% O2
Description: Assays were performed using primary cardiac fibroblatsts (CF) isolated from adult (5-6 week old) mouse ventricle. Cells were cultured under 5% O2 conditions. Five days after isolation cells were treated with arachidonic acid (50 microM)+buthionine sulfoximine in the presence or absence of 250 nM tocotrienol for 24h. Phase contrast imaging was performed using a Zeiss live cell imaging microscope.
Referring to FIG. 8, isolated cardiac fibroblasts cells were treated five days after isolation with arachidonic acid (AA)(50 microM)±buthionine sulfoximine (BS)) in the presence or absence of 250 nM tocotrienol (T3) for 24 hours. Phase contrast imaging was performed using a Zeiss live cell imaging microscope.

[7] = tested on: TTP knock-out mice; test: Fertility of tocopherol transport protein (TTP) knock-out mice; settings: mouse, in vivo
Text: The uptake and transport of dietary or pharmaceutically supplemented tocopherol from the gut to various parts of the body is directed by TTP. In order to understand and distinguish the important roles of tocopherols and tocotrienols in mammals, knock out mice have been produced in which expression of TTP has been ablated. Interruption of TTP results in loss of fertility in these mice which make it impossible to breed and thus maintain the line for further study.

[8] = target: T2, hydroxy-3 methylglutaryl coenzyme A reductase (Homo sapiens, UniProt P04035); settings: micromolar amounts; Pearce et al.; cited from earlier work
T2 sequence (P04035 1-888): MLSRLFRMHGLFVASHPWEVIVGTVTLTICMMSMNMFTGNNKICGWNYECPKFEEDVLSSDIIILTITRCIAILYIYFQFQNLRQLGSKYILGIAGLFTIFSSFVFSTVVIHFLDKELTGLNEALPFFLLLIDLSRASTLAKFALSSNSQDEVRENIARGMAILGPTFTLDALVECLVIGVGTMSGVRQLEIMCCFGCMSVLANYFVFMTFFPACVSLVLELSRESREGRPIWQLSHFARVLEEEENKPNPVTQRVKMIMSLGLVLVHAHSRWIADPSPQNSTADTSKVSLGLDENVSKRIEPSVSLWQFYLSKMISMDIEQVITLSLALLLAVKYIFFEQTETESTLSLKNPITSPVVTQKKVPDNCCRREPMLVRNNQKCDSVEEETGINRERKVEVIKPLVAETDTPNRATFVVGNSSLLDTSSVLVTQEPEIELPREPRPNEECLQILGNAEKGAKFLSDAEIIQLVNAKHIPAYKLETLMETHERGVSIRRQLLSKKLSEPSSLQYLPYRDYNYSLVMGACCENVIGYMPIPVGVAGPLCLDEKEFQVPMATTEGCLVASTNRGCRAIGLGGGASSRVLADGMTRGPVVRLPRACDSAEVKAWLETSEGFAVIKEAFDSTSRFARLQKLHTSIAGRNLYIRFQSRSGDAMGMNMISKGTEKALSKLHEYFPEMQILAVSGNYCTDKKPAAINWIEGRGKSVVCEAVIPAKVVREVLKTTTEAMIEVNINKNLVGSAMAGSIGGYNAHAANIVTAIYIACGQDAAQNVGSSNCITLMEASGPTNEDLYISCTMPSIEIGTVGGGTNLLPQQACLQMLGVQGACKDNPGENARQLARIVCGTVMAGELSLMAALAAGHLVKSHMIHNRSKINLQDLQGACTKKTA

Compound | glutamate-induced degeneration of the neural network and neuronal growth [1] | protection against glutamate induced death of HT4 cells ([2]; glutamate 10 mM, BL15 2.5 μM 5 min before) | protection of primary neurons against toxicity triggered by L-homocysteic acid or BSO ([3]; L-homocysteic acid 1 mM or BSO 0.15 mM, BL15 2.5 μM 5 min before) | protection against glutamate-induced death of primary neurons ([3]; glutamate 10 mM, α-tocotrienol 100 nM or BL15 2.5 μM 5 min before) | cellular glutathione (GSH) in protected glutamate-treated primary neurons [4] | relative affinity of alpha TTP [5] | cell death induced by AA+BSO [6] | fertility of TTP knock-out mice [7] | activity of hydroxy-3 methylglutaryl coenzyme A reductase [8] | protection against glutamate-induced toxicity / loss of cell viability of HT4 ([2]; glutamate 10 mM, tocotrienol 100 nM (nM levels) 5 min before) | proliferation / growth rate of glutamate-treated HT4 cells ([2]; tocotrienol 100 nM (nM levels), cells counted 12, 24 and 36 h after glutamate)
O=c1cc(-c2ccccc2)oc2cc(O)c(O)c(O)c12 [BL15, 5,6,7-trihydroxy-flavone, reference compound] | protection | clearly protected | protected | protected neurons against glutamate challenge; also recorded: clearly protected | loss of cellular glutathione; also recorded: lowered GSH levels | – | – | – | – | – | –
tocotrienol | – | – | – | – | – | relatively low affinity | completely blocked cell death | reversal of TTP-dependent infertility | suppress the activity | prevented glutamate-induced toxicity | proliferate at a rate comparable to cells not treated with glutamate
